# Like-named read-outs stand apart in the source and are kept apart here.
# Legend:
# [1] = tested on: CYPIR; test: Example I: postemergence foliar-applied herbicidal mixtures, direct seeded rice, CYPIR; format: in vivo, Cyperus iria (rice flatsedge); conditions: 5.3 gae/ha
# [2] = tested on: LEFCH; test: Example I: postemergence foliar-applied herbicidal mixtures, direct seeded rice, LEFCH; format: in vivo, Leptochloa chinensis (Chinese sprangletop)
# [3] = tested on: IPOHE; test: Example I: postemergence foliar-applied herbicidal mixtures, direct seeded rice, IPOHE; format: in vivo, Ipomoea hederacea (ivyleaf morningglory)
# Method: (§2) The soil matrix was contained in plastic pots with a volume of 1 quart and a surface area of 83.6 square centimeters (cm^2). […] The plants were grown for 8-22 days in a greenhouse with an approximate 14 h photoperiod which was maintained at about 29° C. during the day and 26° C. during the night. Nutrients (Peters Excel® 15-5-15 5-Ca 2-Mg and iron chelate) were applied in the irrigation solution as needed and water was added on a regular basis. Supplemental lighting was provided with overhead metal halide 1000-Watt lamps as necessary. The plants were employed for testing when they reached the first through fourth true leaf stage.
# (§3) Treatments consisted of the acid or esters of 4-amino-3-chloro-5-fluoro-6-(4-chloro-2-fluoro-3-methoxy-phenyl)pyridine-2-carboxylic acid (Compound A), each formulated as an SC (suspension concentrate), and various herbicidal components alone and in combination. Forms of compound A were applied on an acid equivalent basis.
# (§4) For treatments comprised of formulated compounds, measured amounts of compounds were placed individually in 25 mL glass vials and diluted in a volume of 1.25% (v/v) Agri-Dex® crop oil concentrated to obtain 12× stock solutions. […] Application solutions were prepared by adding an appropriate amount of each stock solution (e.g., 1 mL) and diluted to the appropriate final concentrations with the addition of 10 mL of an aqueous mixture of 1.25% (v/v) crop oil concentrate so that the final spray solutions contained 1.25+/−0.05% (v/v) crop oil concentrate.
# (§5) All stock solutions and applications solutions were visually inspected for compound compatibility prior to application. Spray solutions were applied to the plant material with an overhead Mandel track sprayer equipped with a 8002E nozzles calibrated to deliver 187 L/ha over an application area of 0.503 m^2 at a spray height of 18 to 20 inches (46 to 50 cm) above average plant canopy height. Control plants were sprayed in the same manner with the solvent blank.
# (§6) The treated plants and control plants were placed in a greenhouse as described above and watered by sub-irrigation to prevent wash-off of the test compounds. After approximately 3 weeks, the condition of the test plants as compared with that of the untreated plants was determined visually and scored on a scale of 0 to 100 percent where 0 corresponds to no injury or growth inhibition and 100 corresponds to complete kill.
# (§7) Colby's equation was used to determine the herbicidal effects expected from the mixtures (Colby, S. R. 1967. Calculation of the synergistic and antagonistic response of herbicide combinations. Weeds 15:20-22).
# (§8) The following equation was used to calculate the expected activity of mixtures containing two active ingredients, A and B: Expected=A+B−(A×B/100)
# (§9) A=observed efficacy of active ingredient A at the same concentration as used in the mixture.
# (§10) B=observed efficacy of active ingredient B at the same concentration as used in the mixture.
# [4] = tested on: CYPRO; test: Example II: in-water applied herbicidal mixtures, weed control in transplanted paddy rice (greenhouse), CYPRO; format: in vivo, Cyperus rotundus (purple nutsedge); conditions: for Visual Weed Control (%) - 20 DAA CYPRO Obs / Visual Weed Control (%) - 21 DAA CYPRO Obs / Visual Weed Control (%) - 22 DAA CYPRO Obs: in-water application
# Method in brief: (§1)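 Greenhouse paddy pots of dried mud; rice seedlings at the second or third leaf stage were transplanted into mud 4 days before treatment. Osmocote 19:6:12 supplied nutrients. Solutions were pipetted individually and sequentially into the paddy water, with equal acetone and crop oil concentrate across treatments; controls got solvent blank.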
# [5] = tested on: ECHCG; test: Example II: in-water applied herbicidal mixtures, transplanted paddy rice, ECHCG; format: in vivo, Echinochloa crus-galli (barnyardgrass); conditions: for Visual Weed Control (%) - 21 DAA ECHCG Obs / Visual Weed Control (%) - 22 DAA ECHCG Obs: in-water application
# Method in brief: as §1
# [6] = tested on: ECHOR; test: Example II: in-water applied herbicidal mixtures, transplanted paddy rice, ECHOR; format: in vivo, Echinochloa oryzoides (early watergrass)
# Method in brief: as §1
# [7] = tested on: LEFCH; test: Example II: in-water applied herbicidal mixtures, transplanted paddy rice, LEFCH; format: in vivo, Leptochloa chinensis (Chinese sprangletop)
# Method in brief: as §1
# [8] = tested on: SCPMA; test: Example II: in-water applied herbicidal mixtures, transplanted paddy rice, SCPMA; format: in vivo; conditions: for Visual Weed Control (%) - 20 DAA SCPMA Obs: in-water application
# Method in brief: as §1
# [9] = tested on: DIGSA; test: Example I: postemergence foliar-applied herbicidal mixtures, direct seeded rice, DIGSA; conditions: 21.2 gae/ha
# Method: as §2, §3, §4, §5, §6, §7, §8, §9, §10
# [10] = tested on: ECHCG; test: Example I: postemergence foliar-applied herbicidal mixtures, direct seeded rice, ECHCG
# [11] = tested on: ECHCO; test: Example I: postemergence foliar-applied herbicidal mixtures, direct seeded rice, ECHCO
# [12] = 8.75 gae/ha, in-water application
# [13] = 17.5 gae/ha, in-water application
# [14] = 35 gae/ha, in-water application
# [15] = 42.4 gae/ha, in-water application
structure (smiles),measurement,setting,value
"COc1c(Cl)ccc(-c2nc(C(=O)O)c(Cl)c(N)c2F)c1F [Compound A Acid, 4-amino-3-chloro-6-(4-chloro-2-fluoro-3-methoxyphenyl)-5-fluoropyridine-2-carboxylic acid]",Visual Weed Control (%) - 20 DAA CYPIR Obs,[1],65%
same,Visual Weed Control (%) - 20 DAA LEFCH Obs,[2]; 4.38 gae/ha,0%
same,Visual Weed Control (%) - 20 DAA LEFCH Obs,[2]; 5.3 gae/ha,10%
same,Visual Weed Control (%) - 20 DAA LEFCH Obs,[2]; 8.75 gae/ha,0%
same,Visual Weed Control (%) - 20 DAA LEFCH Obs,[2]; 17.5 gae/ha,10%
same,Visual Weed Control (%) - 19 DAA LEFCH Obs,[2]; 19.4 gae/ha,5%
same,Visual Weed Control (%) - 20 DAA IPOHE Obs,[3]; 4.38 gae/ha,10%
same,Visual Weed Control (%) - 20 DAA IPOHE Obs,[3]; 8.75 gae/ha,15%
same,Visual Weed Control (%) - 20 DAA IPOHE Obs,[3]; 17.5 gae/ha,30%
same,Visual Weed Control (%) - 20 DAA CYPRO Obs,[4]; 8.75 gae/ha,0%
same,Visual Weed Control (%) - 21 DAA CYPRO Obs,[4]; 8.75 gae/ha,0%
same,Visual Weed Control (%) - 22 DAA CYPRO Obs,[4]; 8.75 gae/ha,0%
same,Visual Weed Control (%) - 20 DAA CYPRO Obs,[4]; 17.5 gae/ha,70%
same,Visual Weed Control (%) - 21 DAA CYPRO Obs,[4]; 17.5 gae/ha,30%
same,Visual Weed Control (%) - 22 DAA CYPRO Obs,[4]; 17.5 gae/ha,20%
same,Visual Weed Control (%) Obs,"[4]; 20 DAA, 10.6 gae/ha",10%
same,Visual Weed Control (%) Obs,"[4]; 20 DAA, 21.2 gae/ha",20%
same,Visual Weed Control (%) Obs,"[4]; 22 DAA, 8.75 gae/ha",0%
same,Visual Weed Control (%) Obs,"[4]; 22 DAA, 10.6 gae/ha",0%
same,Visual Weed Control (%) Obs,"[4]; 22 DAA, 17.5 gae/ha",20%
same,Visual Weed Control (%) Obs,"[4]; 22 DAA, 21.2 gae/ha",40%
same,Visual Weed Control (%) Obs,"[4]; 22 DAA, 35 gae/ha",50%
same,Visual Weed Control (%) - 21 DAA CYPRO Obs,[4]; 35 gae/ha,85%
same,Visual Weed Control (%) - 22 DAA CYPRO Obs,[4]; 35 gae/ha,50%
same,Visual Weed Control (%) - 21 DAA ECHCG Obs,[5]; 8.75 gae/ha,0%
same,Visual Weed Control (%) - 22 DAA ECHCG Obs,[5]; 8.75 gae/ha,0%
same,Visual Weed Control (%) - 21 DAA ECHCG Obs,[5]; 17.5 gae/ha,0%
same,Visual Weed Control (%) - 22 DAA ECHCG Obs,[5]; 17.5 gae/ha,20%
same,Visual Weed Control (%) Obs,"[5]; 20 DAA, 10.6 gae/ha",20%
same,Visual Weed Control (%) Obs,"[5]; 20 DAA, 21.2 gae/ha",20%
same,Visual Weed Control (%) Obs,"[5]; 20 DAA, 42.4 gae/ha",50%
same,Visual Weed Control (%) Obs,"[5]; 21 DAA, 10.6 gae/ha",0%
same,Visual Weed Control (%) Obs,"[5]; 22 DAA, 8.75 gae/ha",0%
same,Visual Weed Control (%) Obs,"[5]; 22 DAA, 17.5 gae/ha",20%
same,Visual Weed Control (%) Obs,"[5]; 22 DAA, 21.2 gae/ha",25%
same,Visual Weed Control (%) Obs,"[5]; 22 DAA, 35 gae/ha",25%
same,Visual Weed Control (%) Obs,"[5]; 22 DAA, 42.4 gae/ha",30%
same,Visual Weed Control (%) Obs,"[5]; 25 DAA, 8.75 gae/ha",0%
same,Visual Weed Control (%) Obs,"[5]; 25 DAA, 17.5 gae/ha",0%
same,Visual Weed Control (%) Obs,"[5]; 25 DAA, 35 gae/ha",70%
same,Visual Weed Control (%) - 21 DAA ECHCG Obs,[5]; 35 gae/ha,20%
same,Visual Weed Control (%) - 22 DAA ECHCG Obs,[5]; 35 gae/ha,25%
same,Visual Weed Control (%) - 20 DAA ECHOR Obs,[6]; [12],10%
same,Visual Weed Control (%) - 21 DAA ECHOR Obs,[6]; [12],10%
same,Visual Weed Control (%) - 22 DAA ECHOR Obs,[6]; [12],0%
same,Visual Weed Control (%) - 25 DAA ECHOR Obs,[6]; [12],0%
same,Visual Weed Control (%) - 20 DAA ECHOR Obs,[6]; [13],25%
same,Visual Weed Control (%) - 21 DAA ECHOR Obs,[6]; [13],15%
same,Visual Weed Control (%) - 22 DAA ECHOR Obs,[6]; [13],0%
same,Visual Weed Control (%) - 25 DAA ECHOR Obs,[6]; [13],0%
same,Visual Weed Control (%) - 20 DAA ECHOR Obs,[6]; [14],25%
same,Visual Weed Control (%) - 21 DAA ECHOR Obs,[6]; [14],20%
same,Visual Weed Control (%) - 22 DAA ECHOR Obs,[6]; [14],20%
same,Visual Weed Control (%) - 25 DAA ECHOR Obs,[6]; [14],40%
same,Visual Weed Control (%) - 19 DAA ECHOR Obs,[6]; [15],15%
same,pest or weed control at 42.4 g/ha,"[6]; Echinochloa oryzoides, 456 h, 19 DAA, 42.4 gae/ha, read-out: Visual Weed Control (%) Obs",15%
same,pest or weed control at 21.2 g/ha,"[6]; Echinochloa oryzoides, 480 h, 20 DAA, 21.2 gae/ha, read-out: Visual Weed Control (%) Obs",30%
same,pest or weed control at 84.8 g/ha,"[6]; Echinochloa oryzoides, 480 h, 20 DAA, 84.8 gae/ha, read-out: Visual Weed Control (%) Obs",33%
same,pest or weed control at 8.75 g/ha,"[6]; Echinochloa oryzoides, 504 h, 21 DAA, 8.75 gae/ha, read-out: Visual Weed Control (%) Obs",0%
same,pest or weed control at 17.5 g/ha,"[6]; Echinochloa oryzoides, 504 h, 21 DAA, 17.5 gae/ha, read-out: Visual Weed Control (%) Obs",0%
same,pest or weed control at 35 g/ha,"[6]; Echinochloa oryzoides, 504 h, 21 DAA, 35 gae/ha, read-out: Visual Weed Control (%) Obs",20%
same,pest or weed control at 42.4 g/ha,"[6]; Echinochloa oryzoides, 504 h, 21 DAA, 42.4 gae/ha, read-out: Visual Weed Control (%) Obs",15%
same,pest or weed control at 8.75 g/ha,"[6]; Echinochloa oryzoides, 528 h, 22 DAA, 8.75 gae/ha, read-out: Visual Weed Control (%) Obs",0%
same,pest or weed control at 17.5 g/ha,"[6]; Echinochloa oryzoides, 528 h, 22 DAA, 17.5 gae/ha, read-out: Visual Weed Control (%) Obs",0%
same,pest or weed control at 35 g/ha,"[6]; Echinochloa oryzoides, 528 h, 22 DAA, 35 gae/ha, read-out: Visual Weed Control (%) Obs",20%
same,pest or weed control at 8.75 g/ha,"[6]; Echinochloa oryzoides, 600 h, 25 DAA, 8.75 gae/ha, read-out: Visual Weed Control (%) Obs",0%
same,pest or weed control at 17.5 g/ha,"[6]; Echinochloa oryzoides, 600 h, 25 DAA, 17.5 gae/ha, read-out: Visual Weed Control (%) Obs",0%
same,pest or weed control at 35 g/ha,"[6]; Echinochloa oryzoides, 600 h, 25 DAA, 35 gae/ha, read-out: Visual Weed Control (%) Obs",40%
same,Visual Weed Control (%) - 21 DAA LEFCH Obs,[7]; [12],0%
same,Visual Weed Control (%) - 25 DAA LEFCH Obs,[7]; [12],50%
same,Visual Weed Control (%) - 21 DAA LEFCH Obs,[7]; [13],0%
same,Visual Weed Control (%) - 25 DAA LEFCH Obs,[7]; [13],50%
same,Visual Weed Control (%) Obs,"[7]; 22 DAA, 10.6 gae/ha",20%
same,Visual Weed Control (%) Obs,"[7]; 22 DAA, 21.2 gae/ha",40%
same,Visual Weed Control (%) Obs,"[7]; 22 DAA, 42.4 gae/ha",60%
same,Visual Weed Control (%) Obs,"[7]; 25 DAA, 8.75 gae/ha",50%
same,Visual Weed Control (%) Obs,"[7]; 25 DAA, 17.5 gae/ha",50%
same,Visual Weed Control (%) Obs,"[7]; 25 DAA, 35 gae/ha",85%
same,Visual Weed Control (%) - 21 DAA LEFCH Obs,[7]; [14],30%
same,Visual Weed Control (%) - 25 DAA LEFCH Obs,[7]; [14],85%
same,Visual Weed Control (%) - 19 DAA LEFCH Obs,[7]; [15],10%
same,Visual Weed Control (%) - 20 DAA SCPMA Obs,[8]; 8.75 gae/ha,0%
same,Visual Weed Control (%) - 20 DAA SCPMA Obs,[8]; 17.5 gae/ha,0%
same,Visual Weed Control (%) Obs,"[8]; 20 DAA, 42.4 gae/ha",0%
same,Visual Weed Control (%) Obs,"[8]; 20 DAA, 84.8 gae/ha",0%
same,Visual Weed Control (%) Obs,"[8]; 21 DAA, 42.4 gae/ha",0%
same,Visual Weed Control (%) Obs,"[8]; 22 DAA, 8.75 gae/ha",0%
same,Visual Weed Control (%) Obs,"[8]; 22 DAA, 16 gae/ha",0%
same,Visual Weed Control (%) Obs,"[8]; 22 DAA, 17.5 gae/ha",0%
same,Visual Weed Control (%) Obs,"[8]; 22 DAA, 32 gae/ha",0%
same,Visual Weed Control (%) Obs,"[8]; 22 DAA, 35 gae/ha",0%
same,Visual Weed Control (%) Obs,"[8]; 22 DAA, 64 gae/ha",30%
same,Visual Weed Control (%) - 20 DAA SCPMA Obs,[8]; 35 gae/ha,0%
same,Visual Weed Control (%) - 21 DAA DIGSA Obs,[9],10%
same,Visual Weed Control (%) - 21 DAA ECHCG Obs,[10]; 4.38 gae/ha,15%
same,Visual Weed Control (%) - 21 DAA ECHCG Obs,[10]; 8.75 gae/ha,50%
same,Visual Weed Control (%) - 19 DAA ECHCG Obs,[10]; 19.4 gae/ha,80%
same,Visual Weed Control (%) - 21 DAA ECHCO Obs,[11]; 4.38 gae/ha,70%
same,Visual Weed Control (%) - 21 DAA ECHCO Obs,[11]; 8.75 gae/ha,75%

# Source: patent US8912120B2, “Herbicidal compositions comprising 4-amino-3-chloro-5-fluoro-6-(4-chloro-2-fluoro-3-methoxyphenyl) pyridine-2-carboxylic acid or a derivative thereof and synthetic auxin herbicides” (Dow AgroSciences, LLC., priority 2012, dated 2014)
